What is called mortality is the share of the test organisms that died.

Common to all, as to assay type: in vivo
Assay [1] deals with Orchid Thrips (Dichromothrips corbetti). The assay can be described thus: Action on orchid thrips, floral-immersion technique. To be noted: adult thrips, 72 hours after treatment, read-out: mortality in comparison with untreated controls. The procedure: Dichromothrips corbetti adults used for bioassay were obtained from a colony maintained continuously under laboratory conditions. For testing purposes, the test compound is diluted in a 1:1 mixture of acetone:water (vol:vol), plus Kinetic® HV at a rate of 0.01% v/v.
Thrips potency of each compound was evaluated by using a floral-immersion technique. All petals of individual, intact orchid flowers were dipped into treatment solution and allowed to dry in Petri dishes. Treated petals were placed into individual re-sealable plastic along with about 20 adult thrips. All test arenas were held under continuous light and a temperature of about 28° C. for duration of the assay. After 3 days, the numbers of live thrips were counted on each petal. The percent mortality was recorded 72 hours after treatment.

In assay [2] the test system is boll weevil (Anthonomus grandis). The assay can be described thus: Action on boll weevil, eggs on insect diet in 96-well microtiter plates. The settings on record: 120 h, egg and larval mortality after 5 days, read-out: mortality in comparison with untreated controls. The protocol: For evaluating control of boll weevil (Anthonomus grandis) the test unit consisted of 96-well-microtiter plates containing an insect diet and 5-10 A. grandis eggs.
The compounds were formulated using a solution containing 75% (v/v) water and 25% (v/v) DMSO. Different concentrations of formulated compounds were sprayed onto the insect diet at 5 μl, using a custom built micro atomizer, at two replications.
After application, microtiter plates were incubated at about 25+1° C. and about 75+5% relative humidity for 5 days. Egg and larval mortality was then visually assessed.

Assay [3] has as its system Southern Armyworm (Spodoptera eridania), 2nd Instar Larvae. The assay can be described thus: Action on southern armyworm, sprayed lima bean plants. The settings on record: 96 h, 2nd instar larvae on lima bean, 4 days after treatment, read-out: mortality in comparison with untreated controls. The procedure: The active compounds were formulated by a Tecan liquid handler in 100% cyclohexanone as a 10,000 ppm solution supplied in tubes. The 10,000 ppm solution was serially diluted in 100% cyclohexanone to make interim solutions. These served as stock solutions for which final dilutions were made by the Tecan in 50% acetone:50% water (v/v) into 10 or 20 ml glass vials. A nonionic surfactant (Kinetic®) was included in the solution at a volume of 0.01% (v/v). The vials were then inserted into an automated electrostatic sprayer equipped with an atomizing nozzle for application to plants/insects.
Lima bean plants (variety Sieva) were grown 2 plants to a pot and selected for treatment at the 1st true leaf stage. Test solutions were sprayed onto the foliage by an automated electrostatic plant sprayer equipped with an atomizing spray nozzle. The plants were dried in the sprayer fume hood and then removed from the sprayer. Each pot was placed into perforated plastic bags with a zip closure. About 10 to 11 armyworm larvae were placed into the bag and the bags zipped closed. Test plants were maintained in a growth room at about 25° C. and about 20-40% relative humidity for 4 days, avoiding direct exposure to fluorescent light (24 hour photoperiod) to prevent trapping of heat inside the bags. Mortality and reduced feeding were assessed 4 days after treatment, compared to untreated control plants.

The subject of assay [4] is yellow fever mosquito (Aedes aegypti). The assay can be described thus: whole plant or invertebrate. To be noted: 48 h, larval mortality visually assessed after 2 days, read-out: mortality in comparison with untreated controls. The protocol:
For evaluating control of yellow fever mosquito (Aedes aegypti) the test unit consisted of 96-well-microtiter plates containing 200 μl of tap water per well and 5-15 freshly hatched A. aegypti larvae.
The active compounds or mixtures were formulated using a solution containing 75% (v/v) water and 25% (v/v) DMSO. Different concentrations of formulated compounds or mixtures were sprayed onto the insect diet at 2.5 μl, using a custom built micro atomizer, at two replications. For experimental mixtures in these tests identical volumes of both mixing partners at the desired concentrations respectively, were mixed together.
After application, microtiter plates were incubated at 28±1° C., 80±5% RH for 2 days. Larval mortality was then visually assessed.

Assay [5] has as its system Diamond Back Moth (Plutella xylostella). The assay can be described thus: Action on diamond back moth, cabbage leaf dip. To be noted: foliar, 3rd instar larvae, 72 hours after treatment, read-out: mortality in comparison with untreated controls. The protocol: The active compound is dissolved at the desired concentration in a mixture of 1:1 (v/v) distilled water:acetone. Surfactant (Kinetic® HV) is added at a rate of 0.01% (v/v). The test solution is prepared at the day of use.
Leaves of cabbage were dipped in test solution and air-dried. Treated leaves were placed in petri dishes lined with moist filter paper and inoculated with ten 3rd instar larvae. Mortality was recorded 72 hours after treatment. Feeding damages were also recorded using a scale of 0-100%.

In assay [6] the test system is tobacco budworm (Heliothis virescens). The assay can be described thus: Action on tobacco budworm, eggs on insect diet in 96-well microtiter plates. To be noted: 120 h, egg and larval mortality after 5 days, read-out: mortality in comparison with untreated controls. The procedure:
For evaluating control of tobacco budworm (Heliothis virescens) the test unit consisted of 96-well-microtiter plates containing an insect diet and 15-25 H. virescens eggs.
The compounds were formulated using a solution containing 75% v/v water and 25% v/v DMSO. Different concentrations of formulated compounds were sprayed onto the insect diet at 10 μl, using a custom built micro atomizer, at two replications.
After application, microtiter plates were incubated at about 28+1° C. and about 80+5% relative humidity for 5 days. Egg and larval mortality was then visually assessed.

For assay [7], the system named is Silverleaf Whitefly (Bemisia argentifoli) (Adults). The assay can be described thus: Action on silverleaf whitefly adults, sprayed cotton plants. To be noted: Bemisia argentifolii, 72 h, 3 days after treatment, read-out: mortality in comparison with untreated controls. The procedure: The active compounds were formulated by a Tecan liquid handler in 100% cyclohexanone as a 10,000 ppm solution supplied in tubes. The 10,000 ppm solution was serially diluted in 100% cyclohexanone to make interim solutions. These served as stock solutions for which final dilutions were made by the Tecan in 50% acetone:50% water (v/v) into 5 or 10 ml glass vials. A nonionic surfactant (Kinetic®) was included in the solution at a volume of 0.01% (v/v). The vials were then inserted into an automated electrostatic sprayer equipped with an atomizing nozzle for application to plants/insects.
Cotton plants at the cotyledon stage (one plant per pot) were sprayed by an automated electrostatic plant sprayer equipped with an atomizing spray nozzle. The plants were dried in the sprayer fume hood and then removed from the sprayer. Each pot was placed into a plastic cup and about 10 to 12 whitefly adults (approximately 3-5 days old) were introduced. The insects were collected using an aspirator and a nontoxic Tygon® tubing connected to a barrier pipette tip. The tip, containing the collected insects, was then gently inserted into the soil containing the treated plant, allowing insects to crawl out of the tip to reach the foliage for feeding. Cups were covered with a reusable screened lid. Test plants were maintained in a growth room at about 25° C. and about 20-40% relative humidity for 3 days, avoiding direct exposure to fluorescent light (24 hour photoperiod) to prevent trapping of heat inside the cup. Mortality was assessed 3 days after treatment, compared to untreated control plants.

Regarding `CC(C)c1ccccc1NC(=S)N/N=C/c1ccc2c(C(=N)Nc3ccc(OC(F)(F)F)cc3)nn(C)c2c1` [Example C-1, 1-(2-isopropylphenyl)-3-[(E)-[1-methyl-3-[N-[4(trifluoromethoxy)phenyl]carbamimidoyl]indazol-6-yl]methyleneamino]thiourea], the mortality at 500 ppm in assay [1] and in assay [5] was at least 75% each time. For the same molecule, the mortality at 800 ppm in assay [2] was at least 75%; in assay [4], at least 50%; in assay [6], at least 75%. Further, the mortality at 300 ppm in assay [3] and in assay [7] was at least 75% in each case.

As for `CC(C)c1ccccc1N1C(=O)CS/C1=N/N=C/c1ccc2c(C(=N)Nc3ccc(OC(F)(F)F)cc3)nn(C)c2c1` [Example C-2, 6-[(E)-[(E)-[3-(2-isopropylphenyl)-4-oxo-thiazolidin-2-ylidene]hydrazono]methyl]-1-methyl-N-[4-(trifluoromethoxy)phenyl]indazole-3-carboxamidine], the mortality at 500 ppm in assay [1] and in assay [5] was at least 75% in each case. In addition, the values for the mortality at 800 ppm in assay [2], in assay [4] and in assay [6] were at least 75%, at least 50% and at least 75%, respectively. Further, the mortality at 300 ppm in assay [3] and in assay [7] was at least 75% throughout.

As for `CO[C@@H]1[C@@H](OC)[C@H](C)O[C@@H](OC(=O)Nc2ccc3c(C(=S)N(C)c4ccc(OC(F)(F)F)cc4)nn(C)c3c2)[C@@H]1OC` [Example C-4, [(2S,3R,4R,5S,6S)-3,4,5-trimethoxy-6-methyl-tetrahydropyran-2-yl]N-[1-methyl-3-[methyl-[4-(trifluoromethoxy)phenyl]carbamothioyl]indazol-6-yl]carbamate], the mortality at 500 ppm in assay [1] and in assay [5] was at least 75% throughout. For the same molecule, the mortality at 800 ppm is at least 75% in assay [2], at least 50% in assay [4] and at least 75% in assay [6]. For the same molecule, the mortality at 300 ppm in assay [7] was at least 75%.

On to `CC(C)c1ccccc1/N=C1\SCC(=O)N1/N=C/c1ccc2c(C(N)=Nc3ccc(OC(F)(F)F)cc3)nsc2c1` [Example C-28, 6-[(E)-[(2Z)-2-(2-isopropylphenyl)imino-4-oxo-thiazolidin-3-yl]iminomethyl]-N′-[4-(trifluoromethoxy)phenyl]-1,2-benzothiazole-3-carboxamidine], for which the mortality at 500 ppm in assay [1] and in assay [5] was at least 75% in each case. Moreover, the mortality at 800 ppm in assay [2] is at least 75%; in assay [4] it was at least 50%; in assay [6] it was at least 75%. In addition, the mortality at 300 ppm in assay [3] and in assay [7] was at least 75% each time.

Consider `CSC(=N/N=C/c1ccc2c(C(=N)Nc3ccc(OC(F)(F)F)cc3)nn(C)c2c1)Nc1ccccc1C(C)C` [Example C-35, 1-(2-isopropylphenyl)-2-methyl-3-[(E)-[1-methyl-3-[N-[4-(trifluoromethoxy)phenyl]carbamimidoyl]indazol-6-yl]methyleneamino]isothiourea], for which the mortality at 500 ppm in assay [1] and in assay [5] was at least 75% in each case. Further, the results for the mortality at 800 ppm in assay [2], in assay [4] and in assay [6] were at least 75%, at least 50% and at least 75%, respectively. Further, the mortality at 300 ppm in assay [3] and in assay [7] was at least 75% throughout.

Regarding `CC(C)c1ccccc1NC(=S)N/N=C/c1ccc2c(NC(=N)c3ccc(OC(F)(F)F)cc3)nn(C)c2c1` [Example C-38, 1-(2-isopropylphenyl)-3-[(E)-[1-methyl-3-[[4-(trifluoromethoxy)benzenecarboximidoyl]amino]indazol-6-yl]methyleneamino]thiourea], the mortality at 500 ppm in assay [1] and in assay [5] was at least 75% each time. Further, the mortality at 800 ppm in assay [2] is at least 75%; in assay [4] it was at least 50%; in assay [6] it was at least 75%. For the same molecule, the mortality at 300 ppm in assay [3] and in assay [7] was at least 75% throughout.

As to `CC(C)c1ccccc1N1C(=O)CS/C1=N\N=C\c1ccc2c(NC(=N)c3ccc(OC(F)(F)F)cc3)nn(C)c2c1` [Example C-39, N-[6-[(E)-[(Z)-[3-(2-isopropylphenyl)-4-oxo-thiazolidin-2-ylidene]hydrazono]methyl]-1-methyl-indazol-3-yl]-4-(trifluoromethoxy)benzamidine], the mortality at 500 ppm in assay [1] and in assay [5] was at least 75% each time. For the same molecule, the mortality at 800 ppm is at least 75% in assay [2], at least 50% in assay [4] and at least 75% in assay [6]. Also, the mortality at 300 ppm in assay [3] and in assay [7] was at least 75% each time.

The record behind these values is patent US11512054B2, “Pesticidal compounds” (BASF SE, priority 2017, dated 2022).
